According to ChEMBL document CHEMBL5726667, “Substituted pyrrolo[2,3-b]pyrazines and substituted pyrazolo[3,4-b]pyridines as ITK and JAK kinase inhibitors” (2017):

Each compound was assayed against T1, Tyrosine-protein kinase ITK/TSK (Homo sapiens, UniProt Q08881) (assay: In Vitro Inhibition Assay: ITK and JAK3 Kinase assay procedures:Enzyme was incubated with substrate peptide in reaction buffer in the presence and absence of test compounds or Staurosporine. All additions were done on ice, followed by the addition of ATP mix. Wells were uniformly mixed using an Eppendorff plate shaker and incubated at 30° C. for 20 min, and stopped by the addition of 5 μL of 3% …).
T1 sequence (Q08881 whole entry): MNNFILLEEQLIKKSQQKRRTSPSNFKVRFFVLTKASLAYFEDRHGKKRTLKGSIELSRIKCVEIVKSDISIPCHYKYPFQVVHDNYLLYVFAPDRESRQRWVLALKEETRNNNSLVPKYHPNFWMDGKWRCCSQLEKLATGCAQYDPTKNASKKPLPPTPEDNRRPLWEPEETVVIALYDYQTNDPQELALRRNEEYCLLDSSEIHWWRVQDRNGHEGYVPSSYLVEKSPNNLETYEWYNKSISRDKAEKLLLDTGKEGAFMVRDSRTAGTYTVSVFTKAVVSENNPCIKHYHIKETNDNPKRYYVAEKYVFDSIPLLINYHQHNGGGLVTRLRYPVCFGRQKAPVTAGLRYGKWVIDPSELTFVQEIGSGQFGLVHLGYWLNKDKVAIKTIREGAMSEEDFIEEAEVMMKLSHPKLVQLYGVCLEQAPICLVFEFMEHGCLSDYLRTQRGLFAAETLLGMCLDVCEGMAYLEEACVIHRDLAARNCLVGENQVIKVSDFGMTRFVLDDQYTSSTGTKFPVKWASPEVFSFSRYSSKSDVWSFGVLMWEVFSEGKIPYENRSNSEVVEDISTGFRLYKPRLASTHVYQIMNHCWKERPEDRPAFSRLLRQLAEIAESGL
Description: (§1) All additions were done on ice, followed by the addition of ATP mix. Wells were uniformly mixed using an Eppendorff plate shaker and incubated at 30° C. for 20 min, and stopped by the addition of 5 μL of 3% phosphoric acid. Volume was increased to 100 μL by adding 0.8% phosphoric acid which was then transferred to PC filter mats (Millipore), pre-equilibrated with 70% ethanol and water. Plates were washed thrice with 100 μL 0.8% phosphoric acid and dried for an hour at 60° C. 100 μL scintillation fluid was added into each well and reading taken in Perkin Elmer TOPCOUNT beta counter.

IC50 [nM]	Structure (SMILES)
< 100	COc1c(F)cc(F)cc1-c1c[nH]c2ncc(-c3cc(NC(=O)/C(C)=C/C(C)(C)C)ccc3F)cc12
> 100	CC/C=C/C(=O)Nc1cccc(-c2cnc3[nH]nc(C)c3c2)c1
> 100	C=CC(=O)Nc1cccc(-c2cnc3c(c2)CC(=O)N3)c1
> 100	C=CC(=O)Nc1cccc(-c2cnc3[nH]cc(-c4cc(F)cc(F)c4OC)c3n2)c1
> 1000	CC/C=C/C(=O)Nc1cccc(-c2cnc3[nH]cc(C)c3c2)c1
> 1000	Cc1c[nH]c2ncc(-c3cccc(NC(=O)/C=C/N(C)C)c3)cc12
> 1000	Cc1c[nH]c2ncc(Nc3cccc(CC#N)c3)cc12
> 1000	Cc1c[nH]c2ncc(-c3ccc(Cl)c(NC(=O)/C=C/N(C)C)c3)cc12
> 100	CC/C=C/C(=O)Nc1cc(-c2cnc3[nH]cc(C)c3c2)ccc1Cl
> 100	C=CC(=O)Nc1cccc(-c2cnc3[nH]cc(-c4cc5ccc(Cl)cc5[nH]4)c3n2)c1
> 1000	C=CC(=O)Nc1cccc(-c2cnc3[nH]ccc3n2)c1
> 1000	C=CC(=O)Nc1cccc(-c2cnc3[nH]ccc3c2)c1

These compounds were tested against T2, Tyrosine-protein kinase JAK3 (Homo sapiens, UniProt P52333) in the same assay as above.
T2 sequence (P52333 whole entry): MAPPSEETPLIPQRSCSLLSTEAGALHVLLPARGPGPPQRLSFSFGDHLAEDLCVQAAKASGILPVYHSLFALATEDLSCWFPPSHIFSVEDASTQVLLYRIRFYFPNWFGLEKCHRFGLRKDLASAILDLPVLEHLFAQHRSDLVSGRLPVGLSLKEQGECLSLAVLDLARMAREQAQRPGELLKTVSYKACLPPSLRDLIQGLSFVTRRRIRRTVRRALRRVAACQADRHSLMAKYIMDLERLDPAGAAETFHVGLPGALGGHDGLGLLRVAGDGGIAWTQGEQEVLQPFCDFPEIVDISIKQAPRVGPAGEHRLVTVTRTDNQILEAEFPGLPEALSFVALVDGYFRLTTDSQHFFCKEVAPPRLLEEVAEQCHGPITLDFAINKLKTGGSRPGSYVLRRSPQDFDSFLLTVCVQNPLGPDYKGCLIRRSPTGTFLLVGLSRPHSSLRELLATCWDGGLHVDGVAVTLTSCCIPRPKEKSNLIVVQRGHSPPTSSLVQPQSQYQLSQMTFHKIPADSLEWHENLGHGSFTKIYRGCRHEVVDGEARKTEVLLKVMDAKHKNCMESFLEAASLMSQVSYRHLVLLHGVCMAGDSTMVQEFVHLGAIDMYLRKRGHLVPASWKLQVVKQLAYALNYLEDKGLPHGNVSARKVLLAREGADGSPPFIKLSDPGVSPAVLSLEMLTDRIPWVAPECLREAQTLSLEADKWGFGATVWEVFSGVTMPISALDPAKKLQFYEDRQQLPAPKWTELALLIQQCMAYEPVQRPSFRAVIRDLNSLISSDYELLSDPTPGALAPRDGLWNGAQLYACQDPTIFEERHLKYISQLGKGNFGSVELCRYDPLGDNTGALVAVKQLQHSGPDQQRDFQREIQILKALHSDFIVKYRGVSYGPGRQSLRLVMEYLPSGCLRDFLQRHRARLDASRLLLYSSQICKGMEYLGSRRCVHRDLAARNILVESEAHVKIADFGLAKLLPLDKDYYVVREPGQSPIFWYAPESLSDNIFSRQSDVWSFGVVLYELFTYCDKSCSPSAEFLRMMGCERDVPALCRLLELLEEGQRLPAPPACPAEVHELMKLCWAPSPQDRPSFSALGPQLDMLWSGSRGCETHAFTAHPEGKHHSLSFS
Description: as §1

IC50 [nM]	Structure (SMILES)
< 100	COc1c(F)cc(F)cc1-c1c[nH]c2ncc(-c3cc(NC(=O)/C(C)=C/C(C)(C)C)ccc3F)cc12
> 100	CC/C=C/C(=O)Nc1cccc(-c2cnc3[nH]nc(C)c3c2)c1
> 100	C=CC(=O)Nc1cccc(-c2cnc3c(c2)CC(=O)N3)c1
> 100	C=CC(=O)Nc1cccc(-c2cnc3[nH]cc(-c4cc(F)cc(F)c4OC)c3n2)c1
> 1000	CC/C=C/C(=O)Nc1cccc(-c2cnc3[nH]cc(C)c3c2)c1
> 1000	Cc1c[nH]c2ncc(-c3cccc(NC(=O)/C=C/N(C)C)c3)cc12
> 1000	Cc1c[nH]c2ncc(Nc3cccc(CC#N)c3)cc12
> 1000	Cc1c[nH]c2ncc(-c3ccc(Cl)c(NC(=O)/C=C/N(C)C)c3)cc12
> 100	CC/C=C/C(=O)Nc1cc(-c2cnc3[nH]cc(C)c3c2)ccc1Cl
> 100	C=CC(=O)Nc1cccc(-c2cnc3[nH]cc(-c4cc5ccc(Cl)cc5[nH]4)c3n2)c1
> 1000	C=CC(=O)Nc1cccc(-c2cnc3[nH]ccc3n2)c1
> 1000	C=CC(=O)Nc1cccc(-c2cnc3[nH]ccc3c2)c1
